# From ChEMBL document CHEMBL5034023, “Development of Multifunctional and Orally Active Cyclic Peptide Agonists of Opioid/Neuropeptide FF Receptors that Produce Potent, Long-Lasting, and Peripherally Restricted Antinociception with Diminished Side Effects” (J Med Chem, 2021)
# pEC50: −log10 of the molar value. The source made the active and inactive calls. Bridge positions count the residues as written; N and C are the ends. Square brackets hold non-standard residues; d marks the D form. Peptide text beside a SMILES is read from it. NMeF = CN[C@@H](Cc1ccccc1)C(=O)O
# Assays:
# [1] = molecular target: T1, Neuropeptide FF receptor 1 (Homo sapiens, UniProt Q9GZQ6); test: (§1) Agonist activity at NPFF1R (unknown origin) expressed in HEK293-A cells assessed as inhibition of forskolin-induced cAMP accumulation by measuring maximal efficacy preincubated for 30 mins in presence of 3-isobutyl-1-methylxanthine followed by forskolin and compound addition by competitive PKA binding assay relative to control; format: functional, cell-based; conditions: filed as agonist
# [2] = molecular target: T1, Neuropeptide FF receptor 1; test: Agonist activity at NPFF1R (unknown origin) expressed in HEK293-A cells assessed as inhibition of forskolin-induced cAMP accumulation preincubated for 30 mins in presence of 3-isobutyl-1-methylxanthine followed by forskolin and compound addition by competitive PKA binding assay; format: functional, cell-based
# [3] = system: Mus musculus; test: Antinociceptive activity against Kunming mouse model of thermal-induced nociception assessed as maximum possible effect at 8.68 nmol/kg, po measured after 20 min by tail flick test relative to control; format: functional
# [4] = system: Mus musculus; test: Antinociceptive activity in Kunming mouse assessed as analgesic tolerance by measuring fold shift in maximal possible effect at 8.68 nmol/kg, po administered for 8 consecutive days by tail flick test; format: functional
# [5] = molecular target: T2, Neuropeptide FF receptor 2 (Homo sapiens, UniProt Q9Y5X5); test: as §1, with “NPFF2R” for “NPFF1R”; format: functional, cell-based; conditions: filed as agonist
# [6] = system: Mus musculus; test: Antinociceptive activity against Kunming mouse model of thermal-induced nociception assessed as prolongation of tail-flick latency period at 8.68 nmol/kg, po in presence of Nal at 1 mg/kg, ip measured up to 240 mins by tail-flick test; format: functional, organism-based; conditions: time min <=240
# [7] = system: Mus musculus; test: Antinociceptive activity against icv dosed Kunming mouse model of thermal-induced nociception assessed as prolongation of tail-flick latency period measured up to 240 mins by tail-flick test; format: functional; conditions: time min <=240
# [8] = system: Mus musculus; test: Antinociceptive activity against Kunming mouse model of thermal-induced nociception assessed as prolongation of tail-flick latency period at 8.68 nmol/kg, sc in presence of NALM at 5 nmol/kg, icv measured up to 240 mins by tail-flick test; format: functional, organism-based; conditions: time min <=240
# [9] = system: Mus musculus; test: Antinociceptive activity against Kunming mouse model of thermal-induced nociception assessed as prolongation of tail-flick latency period at 8.68 nmol/kg, sc in presence of NTI at 1 mg/kg, sc measured up to 240 mins by tail-flick test; format: functional, organism-based; conditions: time min <=240
# [10] = MRT (0 to infinity) in Kunming mouse at 868.1 nmol/kg, po measured up to 120 mins by LC-MS/MS analysis; format: ADME, organism-based; conditions: in vivo
# [11] = system: Mus musculus; test: Antinociceptive activity against Kunming mouse model of thermal-induced nociception assessed as peripheral analgesia administered subcutaneously by tail-flick test; format: functional; conditions: sc
# [12] = system: Mus musculus; test: Antinociceptive activity against Kunming mouse model of thermal-induced nociception assessed as prolongation of tail-flick latency period at 8.68 nmol/kg, sc in presence of nor-BNI at 1 mg/kg, sc measured up to 240 mins by tail-flick test; format: functional, organism-based; conditions: time min <=240
# [13] = system: Mus musculus; test: Antinociceptive activity against Kunming mouse model of thermal-induced nociception assessed as prolongation of tail-flick latency period at 8.68 nmol/kg, po measured up to 240 mins by tail-flick test; format: functional, organism-based; conditions: time min <=240
# [14] = system: Mus musculus; test: Antinociceptive activity against Kunming mouse model of thermal-induced nociception assessed as prolongation of tail-flick latency period at 2 pmol, icv in presence of nor-BNI measured up to 240 mins by tail-flick test; format: functional, organism-based; conditions: time min <=240
# [15] = Toxicity in Kunming mouse assessed as effect on conditioned place preference at 868.1 nmol/kg, po measured for 5 days; format: organism-based; conditions: in vivo, 120 h, time 5 day
# [16] = Toxicity in Kunming mouse assessed as effect on arterial bicarbonate level at 868.1 nmol/kg, po measured up to 30 mins by blood gas analyzer; format: organism-based; conditions: in vivo, 0.5 h
# [17] = system: Mus musculus; test: Antinociceptive activity against po dosed Kunming mouse model of carrageenan-induced mechanical inflammatory pain assessed as reduction in paw withdrawl threshold measured up to 180 mins by Von Frey assay; format: functional; conditions: 3 h, time min <=180
# [18] = molecular target: Mu-type opioid receptor (Homo sapiens, UniProt P35372)
# [19] = MRT (0 to infinity) in Kunming mouse at 868.1 nmol/kg, iv measured up to 120 mins by LC-MS/MS analysis; format: ADME, organism-based; conditions: in vivo
# [20] = system: Mus musculus; test: Antinociceptive activity against sc dosed Kunming mouse model of thermal-induced nociception assessed as fold shift in duration of analgesic effect by tail-flick test relative to DN-9; format: functional
# [21] = system: Mus musculus; test: Antinociceptive activity against Kunming mouse model of thermal-induced nociception assessed as prolongation of tail-flick latency period at 8.68 nmol/kg, sc in presence of Nal at 1 mg/kg, sc measured up to 240 mins by tail-flick test; format: functional, organism-based; conditions: time min <=240
# [22] = AUC (0 to infinity) in Kunming mouse at 868.1 nmol/kg, iv measured up to 120 mins by LC-MS/MS analysis; format: ADME, organism-based; design: route intravenous, dose 868.1 nmol/kg, time <=120; conditions: in vivo, 2 h
# [23] = molecular target: T2, Neuropeptide FF receptor 2; test: Agonist activity at NPFF2R (unknown origin) expressed in HEK293-A cells assessed as inhibition of forskolin-induced cAMP accumulation preincubated for 30 mins in presence of 3-isobutyl-1-methylxanthine followed by forskolin and compound addition by competitive PKA binding assay; format: functional, cell-based; conditions: read-out: EC50
# [24] = Toxicity in Kunming mouse assessed as effect on arterial partial pressure of carbon dioxide at 868.1 nmol/kg, po measured up to 30 mins by blood gas analyzer; format: organism-based; conditions: in vivo, 0.5 h
# [25] = Clearance in Kunming mouse at 868.1 nmol/kg, iv measured up to 120 mins by LC-MS/MS analysis; format: ADME, organism-based; conditions: in vivo
# [26] = Toxicity in Kunming mouse assessed as effect on locomotor activity at 86.8 to 868.1 nmol/kg, po measured for 150 mins by open field test; format: organism-based; conditions: in vivo, 2.5 h, dose 86.8-868.1 nmol/kg
# [27] = system: Mus musculus; test: Antinociceptive activity against Kunming mouse model of thermal-induced nociception assessed as maximum possible effect at 8.68 nmol/kg, po measured after 30 min by tail flick test relative to control; format: functional; conditions: 0.5 h
# [28] = system: Mus musculus; test: Antinociceptive activity against Kunming mouse model of thermal-induced nociception assessed as prolongation of tail-flick latency period at 2 pmol, icv in presence of bet-FNA measured up to 240 mins by tail-flick test; format: functional, organism-based; conditions: time min <=240
# [29] = system: Mus musculus; test: Antinociceptive activity against Kunming mouse model of thermal-induced nociception assessed as prolongation of tail-flick latency period at 2 pmol, icv in presence of Nal measured up to 240 mins by tail-flick test; format: functional, organism-based; conditions: time min <=240
# [30] = system: Mus musculus; test: Antinociceptive activity against Kunming mouse model of thermal-induced nociception assessed as maximum possible effect at 8.68 nmol/kg, po measured after 60 min by tail flick test relative to control; format: functional; conditions: 1 h
# [31] = system: Mus musculus; test: Antinociceptive activity against Kunming mouse model of thermal-induced nociception assessed as prolongation of tail-flick latency period at 8.68 nmol/kg, po in presence of NTI at 1 mg/kg, ip measured up to 240 mins by tail-flick test; format: functional, organism-based; conditions: time min <=240
# [32] = Toxicity in Kunming mouse assessed as inhibition of gastrointestinal transit at 8681 nmol/kg, po measured after 30 mins by charcoal meal test relative to control; format: organism-based; design: scale not given: the % may be the effect or the level left; conditions: in vivo, 0.5 h
# [33] = Apparent volume of distribution in Kunming mouse at 868.1 nmol/kg, po measured up to 120 mins by LC-MS/MS analysis; format: ADME, organism-based; conditions: in vivo, 2 h
# T1 sequence (Q9GZQ6 whole entry): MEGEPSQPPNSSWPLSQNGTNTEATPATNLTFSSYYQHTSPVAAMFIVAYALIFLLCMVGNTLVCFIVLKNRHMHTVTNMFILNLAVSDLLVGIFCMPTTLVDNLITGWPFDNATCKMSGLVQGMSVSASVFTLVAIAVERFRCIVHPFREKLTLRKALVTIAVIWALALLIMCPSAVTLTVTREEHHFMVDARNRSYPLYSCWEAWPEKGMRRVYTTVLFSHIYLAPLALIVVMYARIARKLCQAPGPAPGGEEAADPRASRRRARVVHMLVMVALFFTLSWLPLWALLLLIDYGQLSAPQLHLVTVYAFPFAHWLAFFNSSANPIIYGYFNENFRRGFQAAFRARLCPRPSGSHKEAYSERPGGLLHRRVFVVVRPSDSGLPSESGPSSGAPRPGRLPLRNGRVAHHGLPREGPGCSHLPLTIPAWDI
# T2 sequence (Q9Y5X5 whole entry): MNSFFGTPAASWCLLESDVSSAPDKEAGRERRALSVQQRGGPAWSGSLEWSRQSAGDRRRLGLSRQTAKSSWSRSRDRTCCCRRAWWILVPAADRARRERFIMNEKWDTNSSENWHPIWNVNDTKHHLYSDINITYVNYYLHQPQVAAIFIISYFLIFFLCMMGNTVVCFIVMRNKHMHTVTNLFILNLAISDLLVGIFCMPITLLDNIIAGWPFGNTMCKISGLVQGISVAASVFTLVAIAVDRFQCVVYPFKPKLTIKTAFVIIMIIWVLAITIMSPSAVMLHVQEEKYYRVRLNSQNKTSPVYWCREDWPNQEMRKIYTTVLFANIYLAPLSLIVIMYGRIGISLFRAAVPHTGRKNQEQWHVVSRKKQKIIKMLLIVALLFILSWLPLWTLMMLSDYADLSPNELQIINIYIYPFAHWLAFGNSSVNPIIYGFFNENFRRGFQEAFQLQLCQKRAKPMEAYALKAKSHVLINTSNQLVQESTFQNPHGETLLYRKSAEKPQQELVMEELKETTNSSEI
# Sequence of Mu-type opioid receptor (P35372 whole entry): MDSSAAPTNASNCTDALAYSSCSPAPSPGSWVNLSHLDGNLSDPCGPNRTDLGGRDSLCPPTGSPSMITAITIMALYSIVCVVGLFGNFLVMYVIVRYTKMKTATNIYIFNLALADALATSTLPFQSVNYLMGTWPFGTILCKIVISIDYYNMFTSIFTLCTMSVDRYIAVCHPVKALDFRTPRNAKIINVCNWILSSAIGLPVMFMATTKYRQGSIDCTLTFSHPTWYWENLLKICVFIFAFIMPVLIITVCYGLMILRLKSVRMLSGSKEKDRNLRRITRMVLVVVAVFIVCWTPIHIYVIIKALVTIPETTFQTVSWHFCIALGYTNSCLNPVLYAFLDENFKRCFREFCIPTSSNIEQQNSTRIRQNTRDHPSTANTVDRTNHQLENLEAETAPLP
structure (smiles),measurement,setting,value
CN1C(=O)CNC(=O)[C@H](NC(=O)[C@@H](N)Cc2ccc(O)cc2)CCCCNC(=O)C[C@@H](C(=O)N2CCC[C@H]2C(=O)N[C@@H](CCC(N)=O)C(=O)N[C@@H](CCCNC(=N)N)C(=O)N[C@@H](Cc2ccccc2)C(N)=O)NC(=O)[C@@H]1Cc1ccccc1 (H-Y[dK]G[NMeF]DPQRF-NH2; lactam 2-5),Emax,[1],73.7%
same,pEC50,[2],6.24
same,MPE,[3],89.7%
same,fold change (FC),[4],0.92
same,Emax,[5],59.5%
same,Activity,[6],inactive
same,ED50,[7],0.63 pmol
same,Activity,[8],Active
same,Activity,[9],Active
same,MRT inf,[10],4.65 h
same,ED50,[11],0.00028 µmol/kg
same,Activity,[12],inactive
same,Activity,[13],Active
same,Activity,[14],inactive
same,Activity,[15],Non-Toxic
same,Activity,[16],Non-Toxic
same,ED50,[17],0.00344 µmol/kg
same,pEC50,[18],7.03
same,MRT inf,[19],5 min
same,fold change (FC),[20],2.7
same,Activity,[21],inactive
same,AUC,[22],33297.7 µg·min/L
same,pEC50,[23],7.30
same,Activity,[24],Non-Toxic
same,clearance,[25],30 mL/min/kg
same,Activity,[26],Non-Toxic
same,MPE,[27],94.2%
same,Activity,[28],inactive
same,Activity,[29],inactive
same,MPE,[30],78.9%
same,Activity,[31],Active
same,Activity,[32],> 50%
same,Vd(app),[33],15.9 L/kg
